{"source": "patent US20240294572A1", "about": "“Antimicrobial Peptides” (priority 2021, published 2024)", "key": {"[1]": {"system": "S. aureus USA300 LAC", "test": "Neutropenic murine infection model, systemic efficacy", "format": "in vivo, C57BL/6 mice", "settings": "5 mg/kg i.p. single dose 2 hours post infection, versus untreated", "experimental": "Female C57BL/6 mice (6 weeks old) were purchased from Charles River. After environmental adaptation, mice were induced to be neutropenic by the administration of two doses of cyclophosphamide on Day 1 (150 mg/kg) and Day 4 (100 mg/kg). On Day 5, mice were infected with S. aureus USA300 (˜2×10^6 CFU per mouse) via intraperitoneal injection (i.p.) (Lakshmaia, et al. (2020) Proc. Natl. Acad. Sci., 117:19446-19454). For the treatment groups, mice were i.p. treated 2 hours post infection with peptides at a single dose of 5 mg/kg. This bacterial strain was able to disseminate to different organs 2 hours post infection (Lakshmaia, et al. (2020) Proc. Natl. Acad. Sci., 117:19446-19454). At the end of the experiments, all the animals were sacrificed according to institutional guidelines. Organs, including spleen, liver, lung, and kidney, were harvested, weighed, and placed in 1 mL of sterile PBS and stored on ice. Harvested organs were subsequently homogenized using an Omni Homogenizer. Proper dilutions were made to get countable colonies. The homogenates were plated onto blood agar plates and incubated overnight at 37° C. The CFU of each murine tissue was plotted as an individual point, and error bars represent the deviation within the experimental group. * indicates p<0.05, **p<0.01, ***p<0.001, and NS means no significance (determined by Mann-Whitney test)."}, "[2]": {"system": "S. aureus USA300 transposon mutant SAUSA300_1089 (lspA)", "test": "Antimicrobial susceptibility of transposon mutant", "format": "cell-based", "settings": "mutant SAUSA300_1089 lspA versus WT", "experimental": "(§1) The antimicrobial susceptibility of over 20 MRSA transposon mutants were also tested, based on a transposon library screening, in the presence of LL-37 peptides (Golla, et al. (2020) ACS Infect. Dis., 6:1866-1881). This Nebraska Transposon Mutant Library of S. aureus USA300 consists of 1920 mutants, each with one nonessential gene disabled due to a transposon insertion (Fey, et al. (2013) mBio 4:e00537-12). The correct insertion of the transposon to each Staph mutant had been verified (Golla, et al. (2020) ACS Infect. Dis., 6:1866-1881). Antimicrobial susceptibility to the new peptide C10-KR8d was evaluated in the same manner as MIC assays. Susceptible strains could be inhibited at a peptide concentration lower than the MIC against the wild strain S. aureus JE2."}, "[3]": {"system": "S. aureus USA300 transposon mutant SAUSA300_1865 (vraR)", "test": "Antimicrobial susceptibility of transposon mutant", "format": "cell-based", "settings": "mutant SAUSA300_1865 vraR versus WT", "experimental": "as §1"}, "[4]": {"system": "S. aureus USA300 transposon mutant SAUSA300_1037 (pheS)", "test": "Antimicrobial susceptibility of transposon mutant", "format": "cell-based", "settings": "mutant SAUSA300_1037 pheS versus WT", "experimental": "as §1"}, "[5]": {"system": "S. aureus USA300 transposon mutant SAUSA300_0988 (trkA)", "test": "Antimicrobial susceptibility of transposon mutant", "format": "cell-based", "settings": "mutant SAUSA300_0988 trkA versus WT", "experimental": "as §1"}, "[6]": {"system": "S. aureus USA300 transposon mutant SAUSA300_0645 (graR)", "test": "Antimicrobial susceptibility of transposon mutant", "format": "cell-based", "settings": "mutant SAUSA300_0645 graR versus WT", "experimental": "as §1"}, "[7]": {"system": "S. aureus USA300", "test": "Bacterial membrane depolarization (DiBAC4(3))", "format": "cell-based", "settings": "3.1, 6.25, 12.5, and 25 μM; 40 minutes", "experimental": "The experiment was conducted as described (Marks, et al. (2013) PLOS One 8:e63158). In brief, an overnight culture of S. aureus USA300 was subcultured in a fresh TSB medium and grown to the exponential phase. Cells were spun using centrifugation, washed 2× with PBS, resuspended in twice the volume of PBS containing 25 mM glucose, and incubated at 37° C. for 15 minute. For membrane depolarization measurements, 500 nM (final concentration) of the dye DiBAC4 (3) bis(1,3-dibutylbarbituric acid) trimethine oxonol (ANASPEC, CA) was added, and the reaction mixture was vortexed gently. Aliquots of 90 μL of the energized bacteria solution were loaded to the wells, and the plate was fed into a FLUOstar® Omega microplate reader. Fluorescence was read for 20 minutes at excitation and emission wavelengths of 485 and 520 nm, respectively, to get dye normalization. Then, 10 μL of the peptide solution was added and gently mixed. Fluorescence readings were recorded for 40 minutes, where Triton™ X-100 (0.1%) was used as a positive control."}, "[8]": {"system": "S. aureus USA300 transposon mutant SAUSA300_1515", "format": "cell-based", "experimental": "as §1"}, "[9]": {"system": "S. aureus USA300 transposon mutant SAUSA300_0647 (vraF)", "format": "cell-based", "experimental": "as §1"}, "[10]": {"system": "S. aureus USA300 transposon mutant SAUSA300_1228 (thrB)", "format": "cell-based", "experimental": "as §1"}, "[11]": {"system": "S. aureus JE2 (SAUSA300, wild type)", "format": "cell-based", "settings": "JE2 (SA, wild type)", "experimental": "as §1"}, "[12]": {"system": "S. aureus USA300 transposon mutant SAUSA300_1036", "format": "cell-based", "experimental": "as §1"}, "[13]": {"system": "S. aureus USA300 transposon mutant SAUSA300_1962", "format": "cell-based", "experimental": "as §1"}}, "note": "Non-standard residues stand in square brackets, D forms with d. Residues, ends and D or L forms follow the SMILES beside them. *: point of attachment. Decanoyl = CCCCCCCCCC(=O)*"}
{"smiles": "CCCCCCCCCC(=O)N[C@H](CCCCN)C(=O)N[C@H](CCCNC(=N)N)C(=O)N[C@@H](C(=O)N[C@H](Cc1c[nH]c2ccccc12)C(=O)N[C@H](CCC(N)=O)C(=O)N[C@H](CCCNC(=N)N)C(=O)N[C@@H](C(=O)N[C@H](CCCCN)C(N)=O)[C@H](C)CC)[C@H](C)CC", "note": "[Peptide C10-KR8d] (Decanoyl-[dK][dR][dI][dW][dQ][dR][dI][dK]-NH2)", "values": [{"measurement": "CFU decrease in mouse lung and liver", "setting": "[1]", "result": "0.5-1 log"}, {"measurement": "CFU decrease in spleen and kidney", "setting": "[1]", "result": "not in spleen and kidney"}, {"measurement": "Susceptible?", "setting": "[2]", "result": "Yes"}, {"measurement": "Susceptible?", "setting": "[3]", "result": "Yes"}, {"measurement": "Susceptible?", "setting": "[4]", "result": "Yes"}, {"measurement": "Susceptible?", "setting": "[5]", "result": "Yes"}, {"measurement": "Susceptible?", "setting": "[6]", "result": "Yes"}, {"measurement": "membrane depolarization ability (order)", "setting": "[7]", "result": "Triton™ X-100>17BIPHE2>C10-KR8d>daptomycin"}, {"measurement": "MIC", "setting": "[8]; mutant SAUSA300_1515, 50% TSB", "result": "1.6 to 3.1", "unit": "µM"}, {"measurement": "Susceptible?", "setting": "[8]; mutant SAUSA300_1515 versus WT", "result": "Yes"}, {"measurement": "Susceptible?", "setting": "[9]; mutant SAUSA300_0647 vraF versus WT", "result": "Yes"}, {"measurement": "MIC", "setting": "[9]; mutant SAUSA300_0647 vraF, 50% TSB", "result": "1.6 to 3.1", "unit": "µM"}, {"measurement": "Susceptible?", "setting": "[10]; mutant SAUSA300_1228 thrB versus WT", "result": "Yes"}, {"measurement": "MIC", "setting": "[10]; mutant SAUSA300_1228 thrB, 50% TSB", "result": "1.6 to 3.1", "unit": "µM"}, {"measurement": "MIC", "setting": "[11]", "result": 3.1, "unit": "µM"}, {"measurement": "MIC", "setting": "[12]; mutant SAUSA300_1036, 50% TSB", "result": "1.6 to 3.1", "unit": "µM"}, {"measurement": "Susceptible?", "setting": "[12]; mutant SAUSA300_1036 versus WT", "result": "Yes"}, {"measurement": "MIC", "setting": "[13]; mutant SAUSA300_1962, 50% TSB", "result": "1.6 to 3.1", "unit": "µM"}, {"measurement": "Susceptible?", "setting": "[13]; mutant SAUSA300_1962 versus WT", "result": "Yes"}]}
